Test results reported in BindingDB's records for doi:10.1016/j.bmcl.2004.12.045 (Nimbus Therapeutics, 2022).

Experiments:
[1] = molecular target: Potassium voltage-gated channel subfamily H member 2 (Homo sapiens, UniProt Q12809); test: Inhibition of hERG measured by patchclamp assay
Cytochrome P450 3A4 = Cytochrome P450 3A4 (Homo sapiens, UniProt P08684); test: Inhibition of CYP3A4 (unknown origin)
Cytochrome P450 2D6 = Cytochrome P450 2D6 (Homo sapiens, UniProt P10635); test: Inhibition of CYP2D6 (unknown origin)
Sequence of Cytochrome P450 2D6 (P10635 whole entry): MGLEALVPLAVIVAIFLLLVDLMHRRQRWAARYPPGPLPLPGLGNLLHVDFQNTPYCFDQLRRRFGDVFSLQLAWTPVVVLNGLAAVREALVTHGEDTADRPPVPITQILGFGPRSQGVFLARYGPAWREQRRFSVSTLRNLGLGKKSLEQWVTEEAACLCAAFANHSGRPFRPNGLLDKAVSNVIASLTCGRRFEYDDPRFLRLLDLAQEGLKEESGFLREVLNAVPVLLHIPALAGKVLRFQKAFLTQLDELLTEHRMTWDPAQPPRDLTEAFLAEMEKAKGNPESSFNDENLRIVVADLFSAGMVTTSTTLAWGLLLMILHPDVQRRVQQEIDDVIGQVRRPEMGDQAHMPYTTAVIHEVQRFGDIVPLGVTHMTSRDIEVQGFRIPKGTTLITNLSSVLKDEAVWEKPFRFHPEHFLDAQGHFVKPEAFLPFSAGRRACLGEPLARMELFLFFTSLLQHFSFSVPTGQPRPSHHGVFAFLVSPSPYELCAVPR

Cytochrome P450 2C9 = Cytochrome P450 2C9 (Homo sapiens, UniProt P11712); test: Inhibition of CYP2C9 (unknown origin)
Sequence of Cytochrome P450 2C9 (P11712 whole entry): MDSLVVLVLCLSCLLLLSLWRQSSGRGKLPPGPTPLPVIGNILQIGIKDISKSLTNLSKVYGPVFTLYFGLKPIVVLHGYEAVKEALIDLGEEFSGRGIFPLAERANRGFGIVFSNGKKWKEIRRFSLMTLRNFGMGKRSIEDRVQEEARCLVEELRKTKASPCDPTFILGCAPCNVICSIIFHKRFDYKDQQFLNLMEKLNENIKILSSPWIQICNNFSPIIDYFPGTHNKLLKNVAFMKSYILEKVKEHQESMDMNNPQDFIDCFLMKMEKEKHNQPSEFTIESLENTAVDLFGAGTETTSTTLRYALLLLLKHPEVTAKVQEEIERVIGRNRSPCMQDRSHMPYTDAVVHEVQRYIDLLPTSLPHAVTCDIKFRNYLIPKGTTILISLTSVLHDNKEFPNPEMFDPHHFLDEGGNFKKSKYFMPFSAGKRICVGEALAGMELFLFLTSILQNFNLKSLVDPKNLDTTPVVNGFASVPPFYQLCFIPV

Cytochrome P450 2C8 = molecular target: T1, Cytochrome P450 2C8 (Homo sapiens, UniProt P10632); test: Inhibition of CYP2C8 (unknown origin)
T1 sequence (P10632 whole entry): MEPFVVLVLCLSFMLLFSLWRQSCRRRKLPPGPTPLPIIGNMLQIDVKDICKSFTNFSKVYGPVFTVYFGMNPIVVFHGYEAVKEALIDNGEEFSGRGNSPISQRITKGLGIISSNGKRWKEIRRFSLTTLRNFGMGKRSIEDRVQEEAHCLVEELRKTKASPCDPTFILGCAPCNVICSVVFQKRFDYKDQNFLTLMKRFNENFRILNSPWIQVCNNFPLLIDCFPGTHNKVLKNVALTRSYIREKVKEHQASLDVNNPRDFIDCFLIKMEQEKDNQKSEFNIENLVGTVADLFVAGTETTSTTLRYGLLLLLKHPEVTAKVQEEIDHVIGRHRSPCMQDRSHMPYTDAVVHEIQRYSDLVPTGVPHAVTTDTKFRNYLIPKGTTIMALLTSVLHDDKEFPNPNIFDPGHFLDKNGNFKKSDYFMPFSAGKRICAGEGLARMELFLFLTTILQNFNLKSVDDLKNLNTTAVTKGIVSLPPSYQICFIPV

Cytochrome P450 1A2 = molecular target: T2, Cytochrome P450 1A2 (Homo sapiens, UniProt P05177); test: Inhibition of CYP1A2 (unknown origin)
T2 sequence (P05177 whole entry): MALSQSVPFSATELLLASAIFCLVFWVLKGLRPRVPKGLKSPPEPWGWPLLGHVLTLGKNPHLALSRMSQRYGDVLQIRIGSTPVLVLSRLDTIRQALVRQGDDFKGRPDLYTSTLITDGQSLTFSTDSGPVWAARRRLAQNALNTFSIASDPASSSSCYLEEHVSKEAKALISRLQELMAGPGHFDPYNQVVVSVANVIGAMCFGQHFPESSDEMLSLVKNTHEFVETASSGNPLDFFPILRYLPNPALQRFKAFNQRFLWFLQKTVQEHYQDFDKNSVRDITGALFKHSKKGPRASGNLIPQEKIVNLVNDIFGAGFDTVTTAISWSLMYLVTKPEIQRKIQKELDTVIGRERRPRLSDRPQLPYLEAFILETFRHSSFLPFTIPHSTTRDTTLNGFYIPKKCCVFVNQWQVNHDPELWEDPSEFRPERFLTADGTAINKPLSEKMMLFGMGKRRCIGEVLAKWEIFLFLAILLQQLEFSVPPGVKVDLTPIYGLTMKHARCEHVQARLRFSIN

Cytochrome P450 2A6 = molecular target: T3, Cytochrome P450 2A6 (Homo sapiens, UniProt P11509); test: Inhibition of CYP2A6 (unknown origin)
T3 sequence (P11509 whole entry): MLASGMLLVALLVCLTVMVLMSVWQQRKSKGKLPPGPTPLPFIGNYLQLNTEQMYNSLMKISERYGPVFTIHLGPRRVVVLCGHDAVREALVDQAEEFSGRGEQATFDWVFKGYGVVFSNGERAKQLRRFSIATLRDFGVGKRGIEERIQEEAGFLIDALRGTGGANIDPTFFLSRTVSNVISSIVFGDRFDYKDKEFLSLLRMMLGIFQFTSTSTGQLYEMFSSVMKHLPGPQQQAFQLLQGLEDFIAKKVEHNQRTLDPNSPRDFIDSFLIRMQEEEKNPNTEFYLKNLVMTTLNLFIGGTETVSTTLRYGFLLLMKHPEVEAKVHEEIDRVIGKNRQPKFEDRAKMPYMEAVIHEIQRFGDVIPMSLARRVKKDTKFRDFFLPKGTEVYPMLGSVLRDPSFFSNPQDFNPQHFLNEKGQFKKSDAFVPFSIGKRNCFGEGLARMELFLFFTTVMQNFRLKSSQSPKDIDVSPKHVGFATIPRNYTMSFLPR

Cytochrome P450 2B6 = molecular target: T4, Cytochrome P450 2B6 (Homo sapiens, UniProt P20813); test: Inhibition of CYP2B6 (unknown origin)
T4 sequence (P20813 whole entry): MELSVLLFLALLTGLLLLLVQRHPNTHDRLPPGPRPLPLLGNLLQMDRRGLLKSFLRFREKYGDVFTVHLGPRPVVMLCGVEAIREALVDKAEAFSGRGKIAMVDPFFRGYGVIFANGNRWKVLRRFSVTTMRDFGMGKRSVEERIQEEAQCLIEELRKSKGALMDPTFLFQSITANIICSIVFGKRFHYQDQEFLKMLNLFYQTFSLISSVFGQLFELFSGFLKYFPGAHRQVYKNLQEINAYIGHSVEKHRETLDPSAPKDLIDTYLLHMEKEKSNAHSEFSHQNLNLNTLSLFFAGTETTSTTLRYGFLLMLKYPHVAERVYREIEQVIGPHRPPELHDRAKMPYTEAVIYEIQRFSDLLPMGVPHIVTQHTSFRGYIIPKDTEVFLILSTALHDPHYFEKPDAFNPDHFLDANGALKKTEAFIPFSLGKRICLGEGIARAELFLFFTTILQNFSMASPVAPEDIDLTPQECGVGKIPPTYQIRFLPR

Cytochrome P450 2C19 = Cytochrome P450 2C19 (Homo sapiens, UniProt P33261); test: Inhibition of CYP2C19 (unknown origin)
Sequence of Cytochrome P450 2C19 (P33261 whole entry): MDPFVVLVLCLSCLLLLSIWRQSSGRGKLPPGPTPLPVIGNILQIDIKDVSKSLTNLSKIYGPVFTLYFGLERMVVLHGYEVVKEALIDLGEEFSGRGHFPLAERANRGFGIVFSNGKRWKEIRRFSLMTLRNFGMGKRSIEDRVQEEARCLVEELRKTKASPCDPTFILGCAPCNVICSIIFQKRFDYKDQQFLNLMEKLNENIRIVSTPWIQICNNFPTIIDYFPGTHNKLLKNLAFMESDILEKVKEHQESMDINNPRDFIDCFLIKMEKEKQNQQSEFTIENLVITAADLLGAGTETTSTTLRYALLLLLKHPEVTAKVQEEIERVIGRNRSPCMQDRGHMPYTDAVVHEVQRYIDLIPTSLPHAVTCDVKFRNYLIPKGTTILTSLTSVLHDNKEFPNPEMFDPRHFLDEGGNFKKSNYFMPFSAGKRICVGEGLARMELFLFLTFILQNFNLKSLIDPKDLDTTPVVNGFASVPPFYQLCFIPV

Cytochrome P450 2E1 = Cytochrome P450 2E1 (Homo sapiens, UniProt P05181); test: Inhibition of CYP2E1 (unknown origin)
Sequence of Cytochrome P450 2E1 (P05181 whole entry): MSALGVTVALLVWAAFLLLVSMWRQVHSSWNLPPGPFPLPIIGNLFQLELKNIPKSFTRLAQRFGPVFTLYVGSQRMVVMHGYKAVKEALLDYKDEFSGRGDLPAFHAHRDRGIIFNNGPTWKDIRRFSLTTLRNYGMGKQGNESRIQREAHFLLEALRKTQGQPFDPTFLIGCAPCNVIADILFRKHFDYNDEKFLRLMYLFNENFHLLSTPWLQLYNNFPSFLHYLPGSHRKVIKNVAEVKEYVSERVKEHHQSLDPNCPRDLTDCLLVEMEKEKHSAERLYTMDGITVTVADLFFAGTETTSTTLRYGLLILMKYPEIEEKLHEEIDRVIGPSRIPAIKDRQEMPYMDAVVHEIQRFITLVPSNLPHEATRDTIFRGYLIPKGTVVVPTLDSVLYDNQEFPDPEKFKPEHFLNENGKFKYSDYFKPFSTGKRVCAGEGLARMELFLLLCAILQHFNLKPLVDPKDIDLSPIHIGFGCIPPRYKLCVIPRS

Cytochrome P450 3A5 = Cytochrome P450 3A5 (Homo sapiens, UniProt P20815); test: Inhibition of CYP3A5 (unknown origin)
Sequence of Cytochrome P450 3A5 (P20815 whole entry): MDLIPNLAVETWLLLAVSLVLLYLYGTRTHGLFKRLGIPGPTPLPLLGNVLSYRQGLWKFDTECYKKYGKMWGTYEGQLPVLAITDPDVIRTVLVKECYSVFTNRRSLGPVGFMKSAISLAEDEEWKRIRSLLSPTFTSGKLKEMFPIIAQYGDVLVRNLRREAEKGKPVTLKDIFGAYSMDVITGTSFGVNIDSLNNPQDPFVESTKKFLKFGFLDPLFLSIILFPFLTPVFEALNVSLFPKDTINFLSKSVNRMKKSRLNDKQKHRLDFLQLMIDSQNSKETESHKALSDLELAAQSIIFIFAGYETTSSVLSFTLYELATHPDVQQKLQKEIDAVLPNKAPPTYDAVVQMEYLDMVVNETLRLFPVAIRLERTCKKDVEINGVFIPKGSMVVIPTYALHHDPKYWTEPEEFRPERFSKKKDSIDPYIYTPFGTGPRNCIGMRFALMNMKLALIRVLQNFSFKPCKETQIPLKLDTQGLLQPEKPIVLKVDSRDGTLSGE

Measured: IC50

Sequence of Potassium voltage-gated channel subfamily H member 2 (Q12809 whole entry): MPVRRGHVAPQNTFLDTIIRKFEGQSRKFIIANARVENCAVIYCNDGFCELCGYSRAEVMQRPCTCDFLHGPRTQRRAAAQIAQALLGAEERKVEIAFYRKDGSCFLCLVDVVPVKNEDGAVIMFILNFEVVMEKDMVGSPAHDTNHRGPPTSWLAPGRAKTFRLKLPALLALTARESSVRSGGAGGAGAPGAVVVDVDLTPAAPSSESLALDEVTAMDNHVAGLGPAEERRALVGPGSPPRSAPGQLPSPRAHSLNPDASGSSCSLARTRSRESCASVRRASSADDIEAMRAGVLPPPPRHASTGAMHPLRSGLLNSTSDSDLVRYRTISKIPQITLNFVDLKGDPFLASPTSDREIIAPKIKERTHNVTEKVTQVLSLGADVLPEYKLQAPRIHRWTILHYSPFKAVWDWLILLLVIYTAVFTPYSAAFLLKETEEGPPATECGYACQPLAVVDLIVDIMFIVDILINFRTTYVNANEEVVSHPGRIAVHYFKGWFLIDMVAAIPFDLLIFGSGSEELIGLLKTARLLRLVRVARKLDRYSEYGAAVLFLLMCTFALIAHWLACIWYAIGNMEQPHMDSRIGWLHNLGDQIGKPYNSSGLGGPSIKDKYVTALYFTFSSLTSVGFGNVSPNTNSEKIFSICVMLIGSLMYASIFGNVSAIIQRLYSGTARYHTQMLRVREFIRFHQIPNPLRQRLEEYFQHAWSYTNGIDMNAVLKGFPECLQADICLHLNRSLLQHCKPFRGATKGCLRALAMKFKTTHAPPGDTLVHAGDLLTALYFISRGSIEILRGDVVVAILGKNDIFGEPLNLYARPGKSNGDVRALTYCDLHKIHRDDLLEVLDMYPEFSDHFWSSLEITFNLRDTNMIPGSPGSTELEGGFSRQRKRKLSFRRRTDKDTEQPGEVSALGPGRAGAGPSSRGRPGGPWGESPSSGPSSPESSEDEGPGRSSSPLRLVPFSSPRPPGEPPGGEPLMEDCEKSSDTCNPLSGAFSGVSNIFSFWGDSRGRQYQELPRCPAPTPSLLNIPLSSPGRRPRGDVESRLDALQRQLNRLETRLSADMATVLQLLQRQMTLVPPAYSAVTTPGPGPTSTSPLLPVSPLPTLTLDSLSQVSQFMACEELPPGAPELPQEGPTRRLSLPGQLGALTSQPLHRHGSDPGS
Sequence of Cytochrome P450 3A4 (P08684 whole entry): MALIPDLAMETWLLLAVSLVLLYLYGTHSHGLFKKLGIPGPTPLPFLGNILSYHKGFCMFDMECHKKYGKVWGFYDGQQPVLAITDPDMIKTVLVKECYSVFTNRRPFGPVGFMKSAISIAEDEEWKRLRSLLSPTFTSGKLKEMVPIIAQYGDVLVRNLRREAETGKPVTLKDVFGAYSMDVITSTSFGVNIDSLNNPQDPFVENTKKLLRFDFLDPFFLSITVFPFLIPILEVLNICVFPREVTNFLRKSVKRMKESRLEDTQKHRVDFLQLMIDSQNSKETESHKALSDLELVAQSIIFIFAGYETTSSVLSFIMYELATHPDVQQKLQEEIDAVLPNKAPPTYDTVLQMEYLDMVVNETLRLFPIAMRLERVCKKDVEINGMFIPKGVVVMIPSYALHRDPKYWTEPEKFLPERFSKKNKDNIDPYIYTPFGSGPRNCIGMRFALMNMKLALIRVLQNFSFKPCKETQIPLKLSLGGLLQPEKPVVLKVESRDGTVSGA

O=C1NCc2nc(-c3c(F)cccc3F)cc(Nc3ccc(C(=O)N4CCCC4)cc3)c21 [US10336752, Compound 2]
> 30 µM: all assays above
